Laboratory results as given in patent US12478640B2, “Inhalation of nitric oxide for treating respiratory diseases” (BEYOND AIR LTD, priority 2012, dated 2025).
Read-outs that look alike come from different tables or passages of the source.

Columns and labels:
[1] = phase I safety study: plasma cytokines, cytometric bead array; assay type: in vivo, human; settings: 160 ppm gNO inhalation vs baseline
Description: (§1) Cohort: 10 healthy adult volunteer subjects (5 males, 5 females), aged 20 to 62 years, were enrolled in the study after screening their medical history, a physical examination, pulmonary function tests and blood values. Exclusion criteria included individuals less than 19 years of age, pregnant females and unwilling to practice birth control during the study, diagnosed with pulmonary disease, epistaxis, hemoptysis, methemoglobinemia, organ transplant recipient or receiving antibiotic therapy.
(§2) Regimen and post-treatment: After obtaining informed consent, treatment was initiated within 5 days of enrollment. Subjects were housed in a hospital ward and received 160 ppm gNO for 30 minutes every four hours (Q4h), five times a day, for five consecutive days by inhalation. Subjects returned for follow-up evaluations 3, 7 and 21 days after the final gNO administration. Subject safety was determined by monitoring vital signs, methemoglobin levels, lung function, blood chemistry, hematology, prothrombin time, inflammatory cytokine/chemokines levels and endothelial activation. These parameters were compared to baseline and at various time-points during and after gNO administration.
(§3) Hematological assessment included a complete blood count and differentials (hemoglobin, hematocrit, red blood cell count, white blood cell count, white blood cell differential, and platelet count) were obtained in order to monitor blood chemistry, hematology and inflammation measurements. The blood chemistry profile included serum creatinine, and liver function tests such as aspartate aminotransferase (AST) serum glutamic oxaloacetic transaminase (SGOT), alkaline phosphatase, and gamma-glutamyl transferase (GGT). The effect of gNO on coagulation was determined by the prothrombin time (PT) and its derived measures of prothrombin ratio (PR) and international normalized ratio (INR). Heparinized plasma was collected at baseline and on days 1, 2, 4, and 5 of gNO administration, and on follow-up days 3, 7 and 21 and frozen at −80° C. Plasma cytokine levels were assessed using the human inflammation cytokine bead array kit (BD Bioscience, Canada). Plasma levels of angiopoietin Ang-1 and Ang-2 were determined by ELISA (R&D Systems, USA).
FIGS. 6A-F present blood levels of various cytokines before and after inhalation of 160 ppm gaseous nitric oxide by 10 healthy human individuals, as measured from blood samples collected within 7 days prior to gNO administration, each day during the treatment and 8, 12 and 26 days thereafter, wherein FIG. 6A presents the plasma levels of tumor necrosis factor (TNF)α, interleukin (IL)-1β data is presented in FIG. 6B, IL-6 in FIG. 6C, IL-8 in FIG. 6D, IL-10 in FIG. 6E and IL-12p70 in FIG. 6F, as determined by a cytometric bead array while statistical differences are compared by repeated measures ANOVA with Bonferroni post test for parametric data (IL-6, IL-8, IL-10, IL-12p70), or Friedman test with Dunn's post test for non-parametric data (TNF and IL-1b).

[2] = tested on: influenza A/victoria/H3N2; settings: 160 ppm gNO, cited from earlier work
[3] = phase I safety study: pulmonary function tests; assay type: in vivo, human
Description: as §1, §2
Subjects underwent full pulmonary function tests (PFT), including lung diffusing capacity (DLCO) by a trained technician utilizing a calibrated pulmonary function system (Jaeger MasterScreen, VIASYS Healthcare, USA) on screening and days 2, 8, 12 and 26. Spirometry test (Microloop by Micro Medical, England) was performed on days 1, 3 and 4. Effect of gNO on lung function and DLCO was determined by changes from baseline, treatment days and follow up days.

[4] = healthy humans, cited from earlier work
[5] = tested on: bovine respiratory disease; settings: intermittent gNO inhalation; cattle; cited from earlier work
[6] = tested on: five planktonic species of methicillin resistant S. aureus (MRSA); settings: 1,600 ppm hours of gNO; all five strains; cited from earlier work
[7] = tested on: P. aeruginosa; settings: solid media, cited from earlier work
[8] = phase I safety study: oxygen saturation (SpO2) by pulse oximeter; assay type: in vivo, human
Description: as §1
(§4) Regimen and post-treatment: After obtaining informed consent, treatment was initiated within 5 days of enrollment. […] Subject safety was determined by monitoring vital signs, methemoglobin levels, lung function, blood chemistry, hematology, prothrombin time, inflammatory cytokine/chemokines levels and endothelial activation. […]
(§5) General medical examinations were performed by a pulmonary physician on screening and on days 8, 12 and 26 to obtain oxygenation and vital sign measurements. […] Oxygenation was measured with a pulse oximeter (Rad 57, Masimo Corporation, USA) which was used according to manufacturer's guidelines to measure functional oxygen saturation of arterial hemoglobin (SPO2) and heart rate. These parameters were measured continuously during every gNO administration and for 3.5 hours after the first treatment of the day. […]

[9] = gNO concentrations below 200 ppm; 6 hours/day for 28 days; rats; cited from earlier work
[10] = phase I safety study in healthy adults: adverse events and vital signs; assay type: in vivo, human; settings: 160 ppm gNO 30 min, 5 times a day, 5 days
Description: as §1, §4, §5

[11] = tested on: highly pathogenic Avian Influenza H7N3; settings: cited from earlier work
[12] = tested on: Pseudomonas aeruginosa pneumonia; settings: 160 ppm gNO, intermittent 30 minute exposures; rat; cited from earlier work
[13] = phase I safety study: plasma angiopoietins Ang-1 and Ang-2; assay type: in vivo, human; settings: 160 ppm gNO inhalation vs baseline
Description: as §1, §2
as §3, with “Heparinized plasma was collected at baseline and on days 1, 2, 4, and 5 of gNO administration, and on follow-up days 3, 7 and 21 and frozen at −80° C.” left out, “USA). […]” for “USA).”

[14] = tested on: S. aureus; settings: solid media, cited from earlier work
[15] = cited from earlier work
[16] = tested on: variety of microbes; settings: 200 ppm gNO, cited from earlier work
[17] = tested on: chronic, non-healing wound; settings: topical 200 ppm gNO; within the first three days; cited from earlier work
[18] = phase I safety study: methemoglobin (SpMet) by pulse oximeter; assay type: in vivo, human
Description: as §1, §2
The levels of gNO, NO2, O2 and methemoglobin were monitored during the administration of gNO. The target gas mixture was 160 ppm gNO with a nitrogen dioxide (NO2) level of less than 5 ppm and an oxygen (O2) level ranging from 21% to 25%. Inspiratory NO, NO2 and O2 levels were continuously monitored by sampling from the mouthpiece sample port located about 6 millimeters from the mouth of the subject with an AeroNOx (Pulmonox, AB, Canada) NO, NO2 and O2 electrochemical analyzer. Delivery safety was determined by the number of occasions that NO2 exceeded 5 ppm, gNO exceeding 10% variation and O2 dropping below 20% during gNO administration. A commercially available noninvasive pulse oximeter (Rad 57, Masimo Corporation, USA) was used to measure saturation levels at the periphery of methemoglobin (SpMet).
These parameters were measured continuously during every gNO administration course and for 3.5 hours after the first treatment of the day. Daily serum samples were collected and frozen at −80° C. and the serum […] level was measured using the Griess reagent.

[19] = during the course of the study vs baseline
[20] = gNO greater than 120 ppm, vs medical air

[N]=O [gNO, nitric oxide]
plasma IL-1b level [1]: unaffected
plasma IL-6 level [1]: unaffected
plasma IL-8 level [1]: unaffected
plasma IL-10 level [1]: unaffected
plasma IL-12p70 level [1]: unaffected
plasma TNF level [1]: unaffected
infectivity of virions ([2]; MDCK cells): reducing the infectivity
anti-viral effect, intermittent vs single exposure ([2]; one 30 minute dose vs three 30 minute treatments Q4h): more evident in the intermittent form of exposure
pulmonary function tests ([3]; during and after 160 ppm gNO treatments): did not reveal any abnormalities
FEV1 [3, 19]: did not differ from baseline
maximum mid-expiratory flow (MMEF) [3, 19]: did not differ from baseline
MetHb level ([4]; inhalation of 128 ppm for 3 hours): > 5%
MetHb level ([4]; inhalation of 512 ppm for 55 minutes): > 5%
clinical symptoms of bovine respiratory disease [5]: decrease the clinical symptoms
population of planktonic MRSA strains [6]: reduction in the population
survival (downward bactericidal trend) ([7]; 50-160 ppm gNO): 5-10%
reduction of colony formation [7, 20]: greater than 90%
SpO2 change between pretreatment and post treatment ([8]; 160 ppm gNO, not significant statistically nor clinically): decreased slightly
hypoxemia (less than 85% SpO2) ([8]; during or after 160 ppm gNO administration): No sudden incidences of hypoxemia
deaths [9]: No deaths occurred
tolerability of treatments ([10]; 10 healthy adults, 250 administrations): well tolerated
minor adverse events reported ([10]; arm bruising from blood draws (1), numbing of tongue (2)): Three minor adverse events
infectivity of virions [11]: reducing the infectivity
leukocyte infiltration [12]: effective to reduce
pulmonary bioburden [12]: effective to reduce
Ang-2/Ang-1 ratio [13]: not affected
plasma Ang-1 [13]: unaffected
plasma Ang-2 [13]: not affected
survival (downward bactericidal trend) ([14]; 50-160 ppm gNO): 5-10%
reduction of colony formation [14, 20]: greater than 90%
mortality ([15]; 300 ppm gNO, first 1-2 days, group of 10 rats): Six of the animals treated with 300 ppm gNO died
mortality ([15]; 400 ppm gNO, first day of exposure, groups of 10 rats): all of the animals died
mortality ([15]; 500 ppm gNO, first day of exposure, groups of 10 rats): all of the animals died
bactericidal effect ([16]; all microorganisms tested): complete bactericidal effect
reduction in CFU/mL ([16]; every bacteria challenged): ≥ 3 log10
biofilm of the wound [17]: no longer visibly present
follow-up SpMet ([18]; 3, 7 and 21 days after final exposure): did not show any residual increase in SpMet
all 930 recorded methemoglobin percent levels (SpMet) ([18]; 160 ppm gNO 30 min, 5 times a day, 5 days): < 5%
SpMet increase between pretreatment and post treatment ([18]; 160 ppm gNO 30 min, p<0.001): about 1%
time for SpMet to return to baseline ([18]; after 160 ppm gNO 30 min, prior to next administration): 3.5 h
highest SpMet ([18]; at the end of the 30 minutes treatment, 160 ppm gNO): 2.5%
accumulation of SpMet with repeated treatments ([18]; five daily treatments for five consecutive days): no accumulative or lingering effect
SpMet level of subjects undergoing the method ([18]; general statement referring to the Examples): ≤ 1%
average increase of SpMet ([18]; single 30 minutes treatment course, 160 ppm gNO, baseline 0.16 percent): 0.9%
